Activity calls are given as the source filed them. The rule behind the calls is not given here.
Experiments:
[1] = Dose normalized AUC in Sprague-Dawley rat at 1 mg/kg, iv; assay type: ADME, organism-based; conditions: in vivo
[2] = molecular target: T1, Nuclear receptor ROR-beta (Homo sapiens, UniProt Q92753); test: Inhibition of Gal4-tagged RORbeta LBD (unknown origin) by cell based luciferase reporter gene assay
T1 sequence (Q92753 whole entry): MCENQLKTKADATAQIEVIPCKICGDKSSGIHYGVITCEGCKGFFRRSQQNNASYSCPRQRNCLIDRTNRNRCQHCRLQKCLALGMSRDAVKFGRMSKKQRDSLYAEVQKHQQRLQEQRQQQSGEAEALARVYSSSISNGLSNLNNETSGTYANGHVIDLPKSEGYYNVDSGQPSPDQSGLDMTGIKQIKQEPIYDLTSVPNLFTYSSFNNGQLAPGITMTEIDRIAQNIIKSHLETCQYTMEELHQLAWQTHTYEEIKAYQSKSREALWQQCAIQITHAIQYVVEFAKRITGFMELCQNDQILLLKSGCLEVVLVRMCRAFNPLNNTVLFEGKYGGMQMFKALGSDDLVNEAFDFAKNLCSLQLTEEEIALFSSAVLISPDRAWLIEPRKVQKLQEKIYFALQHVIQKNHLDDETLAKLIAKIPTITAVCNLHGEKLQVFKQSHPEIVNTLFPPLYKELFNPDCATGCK

[3] = molecular target: T2, Peroxisome proliferator-activated receptor gamma (Homo sapiens, UniProt P37231); test: Inhibition of Gal4-tagged PPARgamma LBD (unknown origin) by cell based luciferase reporter gene assay
T2 sequence (P37231 whole entry): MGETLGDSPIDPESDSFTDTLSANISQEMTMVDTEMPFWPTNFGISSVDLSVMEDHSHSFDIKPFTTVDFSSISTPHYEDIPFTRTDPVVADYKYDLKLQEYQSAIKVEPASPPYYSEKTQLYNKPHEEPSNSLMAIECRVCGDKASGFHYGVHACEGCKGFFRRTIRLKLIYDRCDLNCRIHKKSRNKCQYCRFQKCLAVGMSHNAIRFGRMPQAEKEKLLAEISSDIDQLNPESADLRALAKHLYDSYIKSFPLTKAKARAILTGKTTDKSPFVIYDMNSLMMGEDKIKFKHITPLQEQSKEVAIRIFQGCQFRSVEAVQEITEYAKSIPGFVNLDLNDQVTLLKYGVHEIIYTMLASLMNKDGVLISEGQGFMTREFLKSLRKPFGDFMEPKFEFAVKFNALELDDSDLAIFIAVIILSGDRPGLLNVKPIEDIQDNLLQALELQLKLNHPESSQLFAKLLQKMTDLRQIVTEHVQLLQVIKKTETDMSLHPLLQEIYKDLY

Progesterone receptor = molecular target: T3, Progesterone receptor (Homo sapiens, UniProt P06401); test: Inhibition of Gal4-tagged PR LBD (unknown origin) by cell based luciferase reporter gene assay
T3 sequence (P06401 whole entry): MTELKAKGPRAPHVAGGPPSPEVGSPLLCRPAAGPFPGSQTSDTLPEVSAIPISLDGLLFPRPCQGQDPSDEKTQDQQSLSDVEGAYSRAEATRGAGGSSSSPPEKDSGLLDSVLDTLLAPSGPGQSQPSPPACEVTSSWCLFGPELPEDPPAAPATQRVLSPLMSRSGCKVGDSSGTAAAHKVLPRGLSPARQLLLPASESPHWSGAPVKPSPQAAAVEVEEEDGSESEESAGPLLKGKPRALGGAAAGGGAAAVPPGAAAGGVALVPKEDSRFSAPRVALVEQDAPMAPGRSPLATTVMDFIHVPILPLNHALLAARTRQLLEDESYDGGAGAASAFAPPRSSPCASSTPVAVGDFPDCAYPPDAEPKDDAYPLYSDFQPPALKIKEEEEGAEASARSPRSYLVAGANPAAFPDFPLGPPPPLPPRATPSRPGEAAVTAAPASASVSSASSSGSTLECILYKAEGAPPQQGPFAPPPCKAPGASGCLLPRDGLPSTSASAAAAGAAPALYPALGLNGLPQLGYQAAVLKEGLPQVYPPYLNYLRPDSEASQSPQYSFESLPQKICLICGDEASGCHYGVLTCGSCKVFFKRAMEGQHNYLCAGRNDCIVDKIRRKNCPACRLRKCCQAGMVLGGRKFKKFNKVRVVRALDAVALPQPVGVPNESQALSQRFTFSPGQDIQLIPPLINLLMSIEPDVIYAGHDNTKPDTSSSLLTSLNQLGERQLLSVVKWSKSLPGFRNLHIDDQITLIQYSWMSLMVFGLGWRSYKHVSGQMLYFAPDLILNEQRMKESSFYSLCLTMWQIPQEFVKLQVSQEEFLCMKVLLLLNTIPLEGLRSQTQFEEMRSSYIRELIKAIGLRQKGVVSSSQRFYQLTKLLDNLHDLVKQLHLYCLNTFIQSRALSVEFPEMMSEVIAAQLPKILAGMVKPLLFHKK

Vitamin D3 receptor = molecular target: T4, Vitamin D3 receptor (Homo sapiens, UniProt P11473); test: Inhibition of Gal4-tagged VDR LBD (unknown origin) by cell based luciferase reporter gene assay
T4 sequence (P11473 whole entry): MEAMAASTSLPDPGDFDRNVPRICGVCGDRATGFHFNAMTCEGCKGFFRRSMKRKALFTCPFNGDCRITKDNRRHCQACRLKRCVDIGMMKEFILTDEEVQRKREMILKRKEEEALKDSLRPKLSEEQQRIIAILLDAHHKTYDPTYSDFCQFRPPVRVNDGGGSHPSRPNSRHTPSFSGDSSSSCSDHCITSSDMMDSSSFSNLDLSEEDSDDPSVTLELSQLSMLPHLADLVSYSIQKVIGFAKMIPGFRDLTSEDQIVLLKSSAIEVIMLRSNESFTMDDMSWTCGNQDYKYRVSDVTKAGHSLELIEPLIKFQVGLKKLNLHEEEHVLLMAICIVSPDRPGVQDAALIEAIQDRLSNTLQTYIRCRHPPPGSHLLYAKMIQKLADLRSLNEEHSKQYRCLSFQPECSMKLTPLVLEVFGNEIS

Cytochrome P450 3A4 = Cytochrome P450 3A4 (Homo sapiens, UniProt P08684); test: Time dependent inhibition of CYP3A4 (unknown origin); assay type: ADME; parameters: concentration or dose not given beside the values
Rattus norvegicus [4] = test: Anti-inflammatory activity in mBSA/CFA-immunized Lewis rat delayed-type hypersensitivity model assessed as reduction in ear swelling at 1 mg/kg, po via gavage administered twice daily for 2 days treated prior to mBSA/CFA challenge measured after up to 50 hrs; assay type: functional, organism-based
Rattus norvegicus [5] = test: Anti-inflammatory activity in mBSA/CFA-immunized Lewis rat delayed-type hypersensitivity model assessed as reduction in ear swelling at 1 to 15 mg/kg, po via gavage administered twice daily for 2 days treated prior to mBSA/CFA challenge measured after up to 50 hrs; assay type: functional, organism-based
Rattus norvegicus [6] = test: Anti-inflammatory activity in mBSA/CFA-immunized Lewis rat delayed-type hypersensitivity model assessed as reduction in frequencies of IL-17-producing draining lymph node cells at 1 to 15 mg/kg, po via gavage administered twice daily for 2 days treated prior to mBSA/CFA challenge; assay type: functional, organism-based
Rattus norvegicus [7] = test: Anti-inflammatory activity in mBSA/CFA-immunized Lewis rat delayed-type hypersensitivity model assessed as reduction in frequencies of IL-17-producing draining lymph node cells at 1 to 15 mg/kg, po via gavage administered twice daily for 2 days treated prior to mBSA/CFA challenge relative to control; assay type: functional; parameters: scale not given: the % may be the effect or the level left

Chain of Cytochrome P450 3A4 (P08684 whole entry): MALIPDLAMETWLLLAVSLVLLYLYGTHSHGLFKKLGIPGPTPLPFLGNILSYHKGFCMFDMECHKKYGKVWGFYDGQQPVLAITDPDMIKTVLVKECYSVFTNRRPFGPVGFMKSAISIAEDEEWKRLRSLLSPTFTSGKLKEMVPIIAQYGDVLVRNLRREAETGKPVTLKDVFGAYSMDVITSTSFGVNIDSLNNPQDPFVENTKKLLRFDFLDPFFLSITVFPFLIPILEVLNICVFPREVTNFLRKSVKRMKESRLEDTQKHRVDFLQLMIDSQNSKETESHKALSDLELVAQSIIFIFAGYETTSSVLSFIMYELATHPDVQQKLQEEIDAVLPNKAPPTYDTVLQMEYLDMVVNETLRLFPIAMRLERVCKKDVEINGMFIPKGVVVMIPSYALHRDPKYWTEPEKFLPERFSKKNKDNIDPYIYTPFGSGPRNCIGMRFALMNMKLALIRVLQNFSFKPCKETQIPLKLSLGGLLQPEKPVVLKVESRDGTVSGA

AUC/dose [1]: 12680 nM·h
IC50 [2]: > 10 µM
IC50 [3]: > 10 µM
IC50 (Progesterone receptor): > 10 µM
IC50 (Vitamin D3 receptor): > 10 µM
K (Cytochrome P450 3A4): 0.005 min⁻¹
SMILES: Cc1c(C2(C(F)(F)F)CC2)nc(C2CC2)n1-c1c(Cl)ccc(N2CC3(CC(C(=O)O)C3)C2)c1Cl (single isomer, unassigned; atropisomer)
Activity (Rattus norvegicus [4]): inactive
Activity (Rattus norvegicus [5]): Dose-dependent effect
Activity (Rattus norvegicus [6]): Dose-dependent effect
Activity (Rattus norvegicus [7]): 50%

Source: ChEMBL document CHEMBL4321852, “Structure-Based and Property-Driven Optimization of N-Aryl Imidazoles toward Potent and Selective Oral RORγt Inhibitors” (J Med Chem, 2019)
